From patent US12031151B2, “Methods of improving protein titer in cell culture” (Regeneron Pharmaceuticals, Inc., priority 2021, dated 2024)

Test system: protein titer of dupilumab production cell culture
Test: LC-MS analysis of HEPES related impurities and titer correlation evaluation across cell culture production runs
Type: cell-based
Details: for Pearson Correlation Coefficient, 5 HEPES salt lots / Pearson Correlation Coefficient, 7 CDM1B lots (Geel) / Pearson Correlation Coefficient, 20 CDM1B lots (Rens): correlation of impurity abundance with final titer; for Pearson Correlation Coefficient, 7 CDM1B lots (Geel): 7 CDM1B media lots; for Pearson Correlation Coefficient, 20 CDM1B lots (Rens): 20 CDM1B media lots; for correlation of impurity abundance with titer: dupilumab production runs, Site 1 (20 runs) and Site 2 (7 runs)
Protocol: ANOVA analysis of the lot genealogy of 53 different components of a chemically defined media was performed between lots utilized in “high titer” performing cell culture runs and “low titer” performing cell culture runs. HEPES acid and salt were identified as “high risk” components, showing the strongest correlation with final titer (the correlation was stronger than the correlation between the titer and media as whole). HEPES also was identified as a “high risk component” in an independent risk-based analysis that considered the weight fractions of components in the media formulation, components' COA purity and their manufacturing methods.
Following identification of HEPES as a “high risk” component with strong correlation to final titer, an analysis of the chemical composition of HEPES buffer lots was performed, including LC-MS and titer correlations evaluations.
Large scale production runs were performed at multiple sites to produce dupilumab. […] Based on the findings, and in accordance with the inventions, improved protein titer may be obtained by using media having reduced HEPES related impurities, in accordance with the inventions.
FIG. 1 illustrates the relation between relative amounts of HEPES+[O2]−[H2] and protein titer. […] Summary of fit data is shown below each graph of FIGS. 2A and 2B.
FIG. 3 illustrates the relation between relative amounts of HEPES−[CH4] and protein titer. […] Summary of fit data is shown below each graph of FIGS. 4A and 4B.

SMILES | Pearson Correlation Coefficient, 5 HEPES salt lots | Pearson Correlation Coefficient, 7 CDM1B lots (Geel) | Pearson Correlation Coefficient, 20 CDM1B lots (Rens) | correlation of impurity abundance with titer
O=CN(CCO)CCN(C=O)CCS(=O)(=O)O [HEPES+[O2]−[H2]] | −0.82 | −0.68 | −0.77 | negative correlation with titer
O=CN1CCN(CCS(=O)(=O)O)CC1 [HEPES−[CH4]] | −0.85 | −0.83 | −0.68 | negative correlation with titer
C=CS(=O)(=O)O [Vinylsulfonic acid] | −0.60 | 0.41 | 0.16 | –
CC(=O)NCS(=O)(=O)O [Acetamidomethane-sulfonic acid] | −0.81 | −0.34 | −0.78 | –
O=S(=O)(O)CC(O)O [2,2-Dihydroxyethane-sulfonic acid] | −0.85 | – | – | –
